Patent US6537267B1, “Method for chronic catheterization of the common bile duct of a laboratory rat” (priority 2001, dated 2003)

Assay: Determination of maximal biliary ICG excretion rate
Assay type: in vivo, rat
Description: Bile was obtained through the bile catheter by inserting a 23-gauge infusion set needle (Abbott Laboratories) from which all but 0.5 in of tubing had been removed, and approximately 24 inches of saline-filled PE 60 tubing attached. A sterile 1.5 mL sampling tube was attached to the tubing end, and bile was withdrawn by suspending the sampling tube below the cage using negative pressure. Bile was collected into tared sampling tubes at 5 minute intervals during a 90 minute period during which ICG was infused into the IVC at 50 μg/minute. ICG, 1 mL/h was delivered by a Razel Scientific (Stamford, Conn.) infusion pump with a 3 mL Becton Dickinson (Franklin Lakes, N.J.) syringe.
Bile flow rate was calculated using the net sampling tube weight assuming a bile density of 1 g/mL. A total of 10 μL of bile from each sample tube was aliquoted to determine ICG concentration. The remainder of the bile was infused into the duodenal catheter to maintain enterohepatic circulation of bile acids. Biliary ICG concentrations were measured spectrophotometrically at wavelength 805 nm. Biliary ICG excretion was calculated for each 5 minute interval by multiplying the bile flow rate by the biliary ICG concentration.
To establish a sensitive and reliable measure of hepatic dysfunction, the maximal biliary ICG excretion rate under physiologic conditions was determined. This measure, which detected even minor changes in biliary ICG excretion, was critical to subsequent primary studies. The animals were anesthetized with ketamine (60 mg/kg) and xylazine (5 mg/kg) intramuscularly. […] The blood concentrations and biliary excretion rates of ICG was measured during a constant infusion of ICG at 10, 20, 50, 100, and 200 μg/minute for 90 minutes in 8 rats that served as their own controls for the different doses on separate days. […] Biliary ICG excretion was measured as described above. Aortic blood samples (0.25 mL) were collected every 10 minutes and analyzed for ICG concentration. Following each blood draw, the animals were transfused with an equal volume of blood obtained immediately prior to transfusion from other untreated chronically catheterized rats that were previously designated as donors. […] After an initial 30 minute equilibration period mean biliary ICG excretion remained at a steady state concentration between 30 and 90 minutes of ICG infusion. […] The bile flow rate was unaffected by any of the tested ICG concentrations.

[1] = ICG infusion 100 and 200 μg/minute

CC1(C)C(/C=C/C=C/C=C/C=C2\N(CCCCS(=O)(=O)O)c3ccc4ccccc4c3C2(C)C)=[N+](CCCCS(=O)(=O)[O-])c2ccc3ccccc3c21 [ICG, Indocyanine green]
biliary ICG excretion rate between 30 and 90 minutes vs 50 μg/minute [1]: did not yield a greater biliary ICG excretion rate | mean blood ICG concentrations between 30 and 90 minutes vs 50 μg/minute [1]: significantly increase mean blood ICG concentrations | effect of ICG on bile flow rate (any of the tested ICG concentrations (10-200 μg/minute)): unaffected | equilibration period before steady state biliary ICG excretion (constant ICG infusion): 30 min
